Assay results: ChEMBL document CHEMBL1909046, “DrugMatrix in vitro pharmacology data”
pIC50, pKi: −log10 of the molar value.

Experiments:
[1] = molecular target: T1, Alpha-1B adrenergic receptor (Rattus norvegicus, UniProt P15823); experiment: DRUGMATRIX: Alpha-1B adrenergic receptor radioligand binding (ligand: prazosin); type: cell membranes, Wistar, Liver, Membrane; conditions: Not Active = under 50% inhibition at 10 µM
T1 sequence (P15823 whole entry): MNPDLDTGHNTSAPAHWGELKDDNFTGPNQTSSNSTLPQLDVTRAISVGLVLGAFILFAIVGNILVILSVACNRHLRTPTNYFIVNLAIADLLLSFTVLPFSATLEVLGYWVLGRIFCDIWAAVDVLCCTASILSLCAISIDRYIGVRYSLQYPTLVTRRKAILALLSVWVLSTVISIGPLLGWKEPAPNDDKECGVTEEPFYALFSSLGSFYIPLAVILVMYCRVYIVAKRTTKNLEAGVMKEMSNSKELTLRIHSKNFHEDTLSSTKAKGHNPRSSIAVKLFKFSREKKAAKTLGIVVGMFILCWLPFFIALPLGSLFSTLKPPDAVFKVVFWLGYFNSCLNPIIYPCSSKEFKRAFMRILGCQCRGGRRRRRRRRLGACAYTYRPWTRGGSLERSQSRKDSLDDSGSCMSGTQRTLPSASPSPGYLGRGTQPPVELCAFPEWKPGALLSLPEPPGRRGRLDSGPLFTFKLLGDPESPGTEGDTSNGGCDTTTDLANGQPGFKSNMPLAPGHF

[2] = molecular target: T2, 3-hydroxy-3-methylglutaryl-coenzyme A reductase (Homo sapiens, UniProt P04035); set-up: species or system Escherichia coli;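 also: enzyme inhibition assay of HMG-CoA reductase using radiolabeled [14C]HMG-CoA as substrate; in other assays of this panel Not Active means under 50% inhibition at 10 µM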
T2 sequence (P04035 whole entry): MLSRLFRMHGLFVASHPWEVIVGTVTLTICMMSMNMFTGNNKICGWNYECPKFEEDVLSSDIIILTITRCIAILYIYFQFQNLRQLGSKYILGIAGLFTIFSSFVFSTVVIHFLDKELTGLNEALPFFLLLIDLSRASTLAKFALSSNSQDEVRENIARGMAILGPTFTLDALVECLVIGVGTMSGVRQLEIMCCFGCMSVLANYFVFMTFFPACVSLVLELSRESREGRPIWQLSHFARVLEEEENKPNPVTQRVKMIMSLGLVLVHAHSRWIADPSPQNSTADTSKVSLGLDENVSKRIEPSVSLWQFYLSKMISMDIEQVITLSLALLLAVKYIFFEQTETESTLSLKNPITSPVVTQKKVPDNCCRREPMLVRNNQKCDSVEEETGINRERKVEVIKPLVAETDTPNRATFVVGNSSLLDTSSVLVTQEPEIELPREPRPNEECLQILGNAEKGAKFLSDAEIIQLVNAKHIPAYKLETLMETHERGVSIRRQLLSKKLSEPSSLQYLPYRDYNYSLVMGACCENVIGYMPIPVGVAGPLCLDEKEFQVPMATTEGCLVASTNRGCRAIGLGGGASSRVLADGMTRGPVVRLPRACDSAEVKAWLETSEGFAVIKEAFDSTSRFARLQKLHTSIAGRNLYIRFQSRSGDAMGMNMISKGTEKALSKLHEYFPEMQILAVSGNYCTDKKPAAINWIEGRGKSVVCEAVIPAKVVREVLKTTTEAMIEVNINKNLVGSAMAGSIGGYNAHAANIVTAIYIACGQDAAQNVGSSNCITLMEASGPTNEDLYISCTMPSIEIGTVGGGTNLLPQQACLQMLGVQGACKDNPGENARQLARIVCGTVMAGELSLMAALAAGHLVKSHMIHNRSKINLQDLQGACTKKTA

[3] = molecular target: Protein kinase C alpha type (Homo sapiens, UniProt P17252); type: cell-based; conditions: sf9;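 also: inhibition of PKCalpha kinase activity measured in an enzyme assay with histone as the phosphorylation substrate; in other assays of this panel Not Active means under 50% inhibition at 10 µM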
[4] = molecular target: T3, Alpha-2A adrenergic receptor (Homo sapiens, UniProt P08913); type: cell membranes, Sf9, Membrane; conditions: for IC50: sf9; as to all read-outs here: in other assays of this panel Not Active means under 50% inhibition at 10 µM
T3 sequence (P08913 whole entry): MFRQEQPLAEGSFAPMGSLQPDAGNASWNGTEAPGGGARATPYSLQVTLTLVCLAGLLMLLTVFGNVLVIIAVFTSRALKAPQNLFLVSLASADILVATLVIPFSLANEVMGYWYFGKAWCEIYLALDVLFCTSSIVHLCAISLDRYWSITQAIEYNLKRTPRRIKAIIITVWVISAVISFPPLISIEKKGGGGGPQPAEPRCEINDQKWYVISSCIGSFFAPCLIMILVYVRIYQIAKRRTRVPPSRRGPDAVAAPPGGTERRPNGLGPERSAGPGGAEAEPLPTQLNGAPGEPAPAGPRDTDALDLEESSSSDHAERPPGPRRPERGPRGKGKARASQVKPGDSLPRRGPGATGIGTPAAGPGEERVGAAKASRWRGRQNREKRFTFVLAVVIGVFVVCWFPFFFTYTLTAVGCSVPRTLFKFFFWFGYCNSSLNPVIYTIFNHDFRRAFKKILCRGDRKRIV

Cytochrome P450 2E1 = Cytochrome P450 2E1 (Homo sapiens, UniProt P05181); conditions: bti-tn-5b1-4; also: in other assays of this panel Not Active means under 50% inhibition at 10 µM
Chain of Cytochrome P450 2E1 (P05181 whole entry): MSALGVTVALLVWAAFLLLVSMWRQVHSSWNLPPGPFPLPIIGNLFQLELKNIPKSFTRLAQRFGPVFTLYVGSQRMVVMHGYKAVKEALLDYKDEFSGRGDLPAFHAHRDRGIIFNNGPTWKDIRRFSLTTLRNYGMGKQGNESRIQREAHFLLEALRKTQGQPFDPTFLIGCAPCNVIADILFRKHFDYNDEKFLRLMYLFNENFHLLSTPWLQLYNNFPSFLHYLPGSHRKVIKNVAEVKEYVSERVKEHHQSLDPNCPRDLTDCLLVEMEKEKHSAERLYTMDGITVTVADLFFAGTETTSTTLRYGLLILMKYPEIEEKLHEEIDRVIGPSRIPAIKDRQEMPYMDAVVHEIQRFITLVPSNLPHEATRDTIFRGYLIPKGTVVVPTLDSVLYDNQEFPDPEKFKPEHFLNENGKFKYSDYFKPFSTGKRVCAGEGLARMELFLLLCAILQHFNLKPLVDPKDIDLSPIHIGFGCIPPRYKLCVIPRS

Cytochrome P450 1A2 = molecular target: T4, Cytochrome P450 1A2 (Homo sapiens, UniProt P05177); conditions: bti-tn-5b1-4; also: in other assays of this panel Not Active means under 50% inhibition at 10 µM
T4 sequence (P05177 whole entry): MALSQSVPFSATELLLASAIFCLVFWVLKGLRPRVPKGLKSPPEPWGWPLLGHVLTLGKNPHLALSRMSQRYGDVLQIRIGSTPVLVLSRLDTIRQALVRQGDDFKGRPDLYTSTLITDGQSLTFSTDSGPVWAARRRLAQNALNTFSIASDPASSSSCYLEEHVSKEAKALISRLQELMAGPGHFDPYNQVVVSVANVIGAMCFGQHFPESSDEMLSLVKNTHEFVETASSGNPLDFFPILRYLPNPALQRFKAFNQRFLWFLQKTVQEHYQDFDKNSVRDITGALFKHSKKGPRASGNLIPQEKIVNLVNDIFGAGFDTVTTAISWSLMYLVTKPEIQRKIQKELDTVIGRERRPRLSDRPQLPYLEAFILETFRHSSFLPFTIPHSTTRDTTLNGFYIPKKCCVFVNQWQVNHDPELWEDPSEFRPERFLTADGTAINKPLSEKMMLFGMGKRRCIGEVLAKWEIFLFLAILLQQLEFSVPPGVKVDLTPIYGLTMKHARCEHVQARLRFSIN

[5] = molecular target: Voltage-gated inwardly rectifying potassium channel KCNH2 (Homo sapiens, UniProt Q12809); conditions: hek293; also: in other assays of this panel Not Active means under 50% inhibition at 10 µM
Chain of Voltage-gated inwardly rectifying potassium channel KCNH2 (Q12809 whole entry): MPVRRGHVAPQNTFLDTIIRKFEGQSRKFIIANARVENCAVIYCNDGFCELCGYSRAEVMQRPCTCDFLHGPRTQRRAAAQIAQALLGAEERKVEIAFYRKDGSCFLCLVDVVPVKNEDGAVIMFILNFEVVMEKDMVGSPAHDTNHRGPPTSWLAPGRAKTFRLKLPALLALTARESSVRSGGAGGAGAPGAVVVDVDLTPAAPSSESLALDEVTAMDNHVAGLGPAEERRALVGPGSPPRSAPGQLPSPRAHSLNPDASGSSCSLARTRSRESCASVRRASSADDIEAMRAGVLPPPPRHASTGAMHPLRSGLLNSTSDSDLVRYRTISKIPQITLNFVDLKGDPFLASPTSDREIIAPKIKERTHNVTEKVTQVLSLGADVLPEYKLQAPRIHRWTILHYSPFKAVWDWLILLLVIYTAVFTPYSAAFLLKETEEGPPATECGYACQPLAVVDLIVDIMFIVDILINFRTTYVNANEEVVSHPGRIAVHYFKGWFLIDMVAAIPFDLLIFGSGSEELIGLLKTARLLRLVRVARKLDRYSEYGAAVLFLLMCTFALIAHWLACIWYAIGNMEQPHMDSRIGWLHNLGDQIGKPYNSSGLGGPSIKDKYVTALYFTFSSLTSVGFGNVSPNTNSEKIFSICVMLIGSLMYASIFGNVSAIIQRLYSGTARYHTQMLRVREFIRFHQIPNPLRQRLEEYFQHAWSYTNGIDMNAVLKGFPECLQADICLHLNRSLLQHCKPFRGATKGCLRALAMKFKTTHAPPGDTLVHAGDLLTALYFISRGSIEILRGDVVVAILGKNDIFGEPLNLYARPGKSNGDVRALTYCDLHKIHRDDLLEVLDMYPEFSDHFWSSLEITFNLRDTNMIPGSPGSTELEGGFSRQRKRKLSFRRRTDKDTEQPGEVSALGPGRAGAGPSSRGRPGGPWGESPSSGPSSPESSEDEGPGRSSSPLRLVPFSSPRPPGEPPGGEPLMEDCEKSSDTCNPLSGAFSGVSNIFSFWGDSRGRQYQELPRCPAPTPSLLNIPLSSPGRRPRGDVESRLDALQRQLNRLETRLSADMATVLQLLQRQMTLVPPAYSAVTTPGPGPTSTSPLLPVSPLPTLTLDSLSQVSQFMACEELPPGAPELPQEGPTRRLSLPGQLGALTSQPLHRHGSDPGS

[6] = molecular target: cGMP-specific 3',5'-cyclic phosphodiesterase (Homo sapiens, UniProt O76074); experiment: DRUGMATRIX: Phosphodiesterase PDE5 enzyme inhibition (substrate: [3H]cGMP + cGMP); type: tissue-based, Platelet; conditions: platelet; Not Active = under 50% inhibition at 10 µM
D(1A) dopamine receptor = D(1A) dopamine receptor (Homo sapiens, UniProt P21728); experiment: DRUGMATRIX: Dopamine D1 radioligand binding (ligand: [3H] SCH-23390); type: cell membranes, CHO, Membrane; conditions: cho; Not Active = under 50% inhibition at 10 µM
Chain of D(1A) dopamine receptor (P21728 whole entry): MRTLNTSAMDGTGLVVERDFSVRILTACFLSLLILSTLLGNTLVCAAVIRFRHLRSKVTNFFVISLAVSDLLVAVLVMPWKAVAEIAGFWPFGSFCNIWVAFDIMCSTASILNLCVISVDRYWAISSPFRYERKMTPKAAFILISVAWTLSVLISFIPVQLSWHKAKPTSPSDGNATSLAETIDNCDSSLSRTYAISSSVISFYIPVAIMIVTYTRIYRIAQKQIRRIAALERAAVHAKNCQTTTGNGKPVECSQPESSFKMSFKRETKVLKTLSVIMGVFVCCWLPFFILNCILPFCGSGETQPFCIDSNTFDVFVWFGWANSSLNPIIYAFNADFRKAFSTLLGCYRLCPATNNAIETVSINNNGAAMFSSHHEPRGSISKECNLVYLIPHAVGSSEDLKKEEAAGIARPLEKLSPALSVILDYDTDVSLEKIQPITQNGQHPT

Glycine receptor = Glycine receptor (Rattus norvegicus, UniProt P22771+P24524+P07727+P20781); type: cell membranes, Wistar, Spinal cord, Membrane; also: in other assays of this panel Not Active means under 50% inhibition at 10 µM

Structure (SMILES)	IC50 [1]	IC50 [2]	IC50 [3]	IC50 [4]	IC50 (Cytochrome P450 2E1)	Ki (Cytochrome P450 2E1)	IC50 (Cytochrome P450 1A2)	Ki (Cytochrome P450 1A2)	IC50 [5]	Ki [5]	IC50 [6]	IC50 (D(1A) dopamine receptor)	IC50 (Glycine receptor)	pIC50 ([4]; read-out: IC50)	pKi ([4]; read-out: Ki)	pIC50 ([1]; read-out: IC50)	pKi ([1]; read-out: Ki)
N=C(N)NCCCCNC(=N)N.O=S(=O)(O)O [ARCAINE SULFATE]	Not Active	Not Active	Not Active	Not Active	Not Active	Not Active	Not Active	Not Active	Not Active	Not Active	Not Active	Not Active	Not Active	–	–	–	–
CC(=O)OCC(=O)[C@@]1(OC(C)=O)[C@@H](C)C[C@H]2[C@@H]3C[C@H](F)C4=CC(=O)C=C[C@]4(C)[C@@]3(F)[C@@H](O)C[C@@]21C [DIFLORASONE DIACETATE]	Not Active	Not Active	Not Active	Not Active	Not Active	Not Active	Not Active	Not Active	Not Active	Not Active	Not Active	Not Active	Not Active	–	–	–	–
CNC(=O)Oc1ccc2c(c1)[C@]1(C)CCN(C)[C@@H]1N2C [PHYSOSTIGMINE]	Not Active	Not Active	Not Active	Not Active	Not Active	Not Active	Not Active	Not Active	Not Active	Not Active	Not Active	Not Active	Not Active	–	–	–	–
CCCC[C@@H](CC)COC(=O)c1ccccc1C(=O)OC[C@@H](CC)CCCC [BIS(2-ETHYLHEXYL)PHTHALATE]	Not Active	Not Active	Not Active	Not Active	Not Active	Not Active	Not Active	Not Active	Not Active	Not Active	Not Active	Not Active	Not Active	–	–	–	–
CC[N+](CC)(CC)CCOc1cccc(OCC[N+](CC)(CC)CC)c1OCC[N+](CC)(CC)CC.[I-].[I-].[I-] [GALLAMINE TRIETHIODIDE]	Not Active	Not Active	Not Active	Not Active	Not Active	Not Active	Not Active	Not Active	Not Active	Not Active	Not Active	Not Active	Not Active	–	–	–	–
Fc1ccc([C@@H]2CCNC[C@H]2COc2ccc3c(c2)OCO3)cc1 [PAROXETINE]	Not Active	Not Active	Not Active	Not Active	Not Active	Not Active	Not Active	Not Active	–	–	Not Active	Not Active	Not Active	–	–	–	–
Cc1c(-c2ccccc2)oc2c(C(=O)OCCN3CCCCC3)cccc2c1=O [FLAVOXATE]	Not Active	Not Active	Not Active	Not Active	Not Active	Not Active	Not Active	Not Active	–	–	Not Active	Not Active	Not Active	–	–	–	–
COc1ccc([C@@H]2Sc3ccccc3N(CCN(C)C)C(=O)[C@@H]2OC(C)=O)cc1 [DILTIAZEM]	Not Active	Not Active	Not Active	Not Active	Not Active	Not Active	Not Active	Not Active	–	–	Not Active	Not Active	Not Active	–	–	–	–
COc1ccc(CN(CCN(C)C)c2ccccn2)cc1 [PYRILAMINE]	Not Active	Not Active	Not Active	–	Not Active	Not Active	Not Active	Not Active	–	–	Not Active	Not Active	Not Active	5.53	5.95	–	–
CN(C)CCCC1(c2ccc(F)cc2)OCc2cc(C#N)ccc21 (configuration not stated) [CITALOPRAM]	–	Not Active	Not Active	Not Active	Not Active	Not Active	Not Active	Not Active	–	–	Not Active	Not Active	Not Active	–	–	5.48	5.74
